Data: patent publication US20140323522A1, “Method of Treating Cancer” (Exelixis, Inc., priority 2011, published 2014)

Assays:
[1] = system: Mouse KS482 cells; test: in vitro osteoblast (OB) differentiation assay; type: cell-based; details: day 8
[2] = system: CD34+ cells derived from human bone marrow; test: in vitro osteoclast (OC) differentiation assay; type: cell-based; details: day 7
[3] = system: proteins related to the VEGF pathway (VEGF, NRP-1, HIF1α); test: IHC and single quantum-dot labeling of ARCaPM tumors in tibia sections, VEGF pathway proteins; type: in vivo, nude mice; details: 10 mg/kg or 30 mg/kg, 7 weeks, vs vehicle
[4] = phase 1 clinical study, tolerability
[5] = system: xenograft tumor models; test: xenograft tumor models; details: in vivo
[6] = system: endothelial cells and tumor cells; test: apoptosis of endothelial cells and tumor cells
[7] = oral bioavailability; details: in vivo
[8] = system: mature OCs; test: in vitro osteoclast (OC) activity assay (bone resorption by mature OCs); type: cell-based, human; details: day 10
[9] = system: pancreatic neuroendocrine tumor; test: murine pancreatic neuroendocrine tumor model; details: mouse, in vivo
[10] = system: castration-resistant prostate cancer (CRPC) with bone metastases; test: Phase 2 trial (NCT00940225) case studies of CRPC patients with bone metastases treated with compound 1; type: in vivo, human
Description: All patients provided informed consent before study screening.

[11] = system: Mouse KS482 cells; test: in vitro osteoblast (OB) bone-forming activity assay; type: cell-based
[12] = system: Human CRPC ARCaPM cells; test: ARCaPM in vivo efficacy study (intratibial xenografts); design: species or system nude mice
Procedure: Micro-CT-based quantification (Scanco 40 instrument) of 5 tibiae per group with 2 measurements each were used. ([…]) indicates vehicle tibia lacking detectable tumor in the section evaluated by histology. […] Bioquant® Image Analysis software was used for the histomorphometry of H&E-stained sections. Tumor (8A) and bone area (8B) were measured in the evaluated sections by tracing their outline within an area of 1×1 mm^2 (total tissue area) near the center of the growth plate. Percentages relative to the total tissue area were calculated. […] Bioquant® Image Analysis software was used for the histomorphometry of consecutive H&E- and TRAP-stained sections. (9A) Based on TRAP stain, OC numbers were counted along the border of the trabecular bone within the same tissue area used to assess tumor and bone area (FIG. 8). The ratio of OCs per bone perimeter (OC/mm) was calculated. (9B) OBs were counted along the trabecular bone surface in the same area on the H&E-stained sections and the number of OBs per bone perimeter (0 B/mm) was calculated. ([…]) indicates vehicle-treated mice without detectable tumor in the corresponding tumor area analysis (FIG. 8A). (A) indicates compound 1-treated mice with detectable tumor in the corresponding tumor area analysis (FIG. 8A).

[13] = 10 mg/kg or 30 mg/kg, 7 weeks, compared to vehicle
[14] = 10 mg/kg or 30 mg/kg, 7 weeks, relative to vehicle

For `COc1cc2nccc(Oc3ccc(NC(=O)C4(C(=O)Nc5ccc(F)cc5)CC4)cc3)c2cc1OC` [Compound 1, N-(4-{[6,7-bis(methyloxy)quinolin-4-yl]oxy}phenyl)-N′-(4-fluorophenyl)cyclopropane-1,1-dicarboxamide], the “OB differentiation (cellular ALP activity)” value [1] was “biphasic effects”, the “OC differentiation (secreted TRACP 5b levels)” value [2] was “inhibits in vitro osteoclast (OC) differentiation in a dose-dependent manner” and the “IHC staining of proteins related to the VEGF pathway (VEGF, NRP-1, HIF1α) in ARCaPM tumors” value [3] was “decreased IHC staining”. For the same molecule, the “most commonly observed adverse events” value [4] was “fatigue, diarrhea, anorexia, rash, and palmar-plantar erythrodysesthesia”, the tolerability [4] was “generally well-tolerated” and the “tumor growth in xenograft tumor models” value [5] was “causes tumor regression”. The “apoptosis of endothelial cells and tumor cells” value [6] was “rapidly induces apoptosis”, the oral bioavailability [7] was “orally bioavailable” and the “ability of mature OCs to resorb bone (secreted CTX normalized to TRACP 5b)” value [8] was “does not affect”. The overall survival [9] was “substantially improves”, the “tumor invasiveness and metastasis” value [9] was “significantly reduces” and the “Hemoglobin (best response, change)” value ([10]; Patient 1, 100 mg dose) was “+1.4 g/dL”. The “Pain (best response)” value ([10]; Patient 1, 100 mg dose) was “Improvement”, the “Tumor response (best response)” value ([10]; Patient 1, 100 mg dose) was −41% and the “tALP (best response, change)” value ([10]; Patient 1, 100 mg dose) was −77%. The “increase in hemoglobin compared with baseline” value (from here on “increase in hemoglobin”) ([10]; Patient 1, Week 2) was 1.4 g/dL, the “CT scan response category” value ([10]; Patient 1, Week 6) was “partial response (PR)” and the “CT scan, decrease in measurable target lesions” value ([10]; Patient 1, Week 6) was 33%. The “bone scan, radiotracer uptake by bone metastases” value ([10]; Patient 1, Week 6) was “dramatic decrease in radiotracer uptake”, the “bone lesions on bone scan” value ([10]; Patient 1, Week 12) was “near complete resolution of bone lesions” and the “decrease in target lesions” value ([10]; Patient 1, Week 12, stable through Week 18) was 44%. The “adverse event leading to withdrawal” value ([10]; Patient 1, Week 18) was “Grade 3 diarrhea”, the PSA level ([10]; Patient 1, Week 18 (430 ng/mL at baseline)) was 93.5 ng/mL and the “serum tALP level” value ([10]; Patient 1, Week 18 (689 U/L at baseline)) was 159 U/L. For the same molecule, the bone pain ([10]; Patient 1, four weeks after start) was “significant reduction in bone pain”, the “Bone scan (best response)” value ([10]; Patient 2, 100 mg dose) was “Improvement” and the “Hemoglobin (best response, change)” value ([10]; Patient 2, 100 mg dose) was “+1.8 g/dL”. The “Pain (best response)” value ([10]; Patient 2, 100 mg dose) was “Pain-free”, the “Tumor response (best response)” value ([10]; Patient 2, 100 mg dose) was −20% and the “tALP (best response, change)” value ([10]; Patient 2, 100 mg dose) was −6%. For the same molecule, the bone pain ([10]; Patient 2, Week 4) was “reduction in bone pain”, the “CT scan, decrease in target lesions” value ([10]; Patient 2, Week 6) was 13% and the “bone scan, radiotracer uptake by bone lesions” value ([10]; Patient 2, Week 6) was “slight flair in radiotracer uptake”. For the same molecule, the “bone scan, radiotracer uptake” value ([10]; Patient 2, Week 12) was “substantial reduction of radiotracer uptake”, the “decrease in measurable disease” value ([10]; Patient 2, Week 12) was 20% and the “increase in hemoglobin” value ([10]; Patient 2, Week 12) was 1.8 g/dL. The “Hemoglobin (best response, change)” value ([10]; Patient 3, 100 mg dose) was “+2.2 g/dL”, the “PSA (best response, change)” value ([10]; Patient 3, 100 mg dose) was −57% and the “Pain (best response)” value ([10]; Patient 3, 100 mg dose) was “Pain-free”. The “Tumor response (best response)” value ([10]; Patient 3, 100 mg dose) was −51%, the “tALP (best response, change)” value ([10]; Patient 3, 100 mg dose) was −77% and the “increase in hemoglobin” value ([10]; Patient 3, Week 2) was 2.2 g/dL. For the same molecule, the “CT scan, decrease in measurable target lesions” value ([10]; Patient 3, Week 6) was 43%, the “bone scan, radiotracer uptake” value ([10]; Patient 3, Week 6) was “dramatic reduction in radiotracer uptake” and the “bone lesions on bone scan” value ([10]; Patient 3, Week 12) was “complete resolution of bone lesions”. The “decrease in measurable disease” value ([10]; Patient 3, Week 12) was 51%, the PSA level ([10]; Patient 3, Week 18 (2.4 ng/mL at screening)) was 1.2 ng/mL and the “serum tALP level” value ([10]; Patient 3, Week 18 (869 U/L at baseline)) was 197 U/L. The pain ([10]; Patient 3, after three weeks) was “complete resolution of pain”, the “OB bone forming activity (organic and inorganic bone matrix)” value [11] was “biphasic effects” and the “osteoblasts (OBs) along the trabecular bone, tibia sections” value [12, 13] was “increased OBs”. For the same molecule, the “osteoclasts (OCs) along the trabecular bone, tibia sections” value [12, 13] was “no change in OCs”, the “bone mineral density, micro-CT” value [12, 14] was “preserves” and the “bone volume/tissue volume (BV/TV), micro-CT” value [12, 14] was “preserves”. The “progression of CRPC ARCaPM tumor xenografts in bone (X-ray, micro-CT of tibiae)” value ([12]; 30 mg/kg, 7 weeks of treatment, vs vehicle) was “blocks progression” and the “progression of CRPC ARCaPM tumor xenografts in bone (H&E stain of tibia sections)” value ([12]; 7 weeks of treatment, vs vehicle) was “blocks progression”.
